This note sets out measurements from ChEMBL document CHEMBL4393707, “Synthesis and evaluation of new quinazolin-4(3H)-one derivatives as potent antibacterial agents against multidrug resistant Staphylococcus aureus and Mycobacterium tuberculosis” (Eur J Med Chem, 2019).

In brackets after ≈: the same amount, converted by molar mass.

Assay type in all cases: functional
In experiment [1] the test system is Mycobacterium tuberculosis. Kind of experiment: Antitubercular activity against Mycobacterium tuberculosis H37Rv after 7 days by resazurin dye based assay. As to conditions: 168 h.
The subject of experiment [2] is Klebsiella pneumoniae. Kind of experiment: Antibacterial activity against Klebsiella pneumoniae ATCC BAA-1705 incubated for 16 to 18 hrs by broth microdilution assay.
In experiment [3] the test system is Pseudomonas aeruginosa. The experiment in a line: Antibacterial activity against Pseudomonas aeruginosa ATCC 27853 incubated for 16 to 18 hrs by broth microdilution assay. (In general: Broth dilution looks for growth in wells or tubes with falling amounts of substance.)
For experiment [4], the system named is Acinetobacter baumannii. Kind of experiment: Antibacterial activity against Acinetobacter baumannii BAA1605 incubated for 16 to 18 hrs by broth microdilution assay.
For experiment [5], the system named is Staphylococcus aureus. Kind of experiment: Antibacterial activity against Staphylococcus aureus ATCC 29213 incubated for 16 to 18 hrs by broth microdilution assay.
The test system of experiment [6] is Escherichia coli. Kind of experiment: Antibacterial activity against Escherichia coli ATCC 25922 incubated for 16 to 18 hrs by broth microdilution assay.

Consider `NNC(=O)c1ccncc1` [ISONIAZID], for which 0.03 µg/mL (≈ 0.219 µM) was the least that counted as inhibitory in experiment [1] (MIC).

Regarding `COc1ccc(-c2cn(-c3ccc4c(=O)n(-c5ccccc5)c(C)nc4c3)nn2)cc1`, the MIC (as a rule, the lowest concentration found to suppress growth) in experiment [2] was over 64 µg/mL; in experiment [3], over 64 µg/mL; in experiment [1], 64 µg/mL (≈ 156 µM); in experiment [4], over 64 µg/mL; in experiment [5] it was over 64 µg/mL; in experiment [6], over 64 µg/mL.

On to `N#Cc1ccc(/C=C/c2nc3ncccc3c(=O)n2Cc2ccc(F)cc2)cc1`, for which the minimal inhibitory concentration (MIC) in experiment [2], in experiment [3], in experiment [1], in experiment [4], in experiment [5] and in experiment [6] was over 64 µg/mL throughout.

Consider `Cc1nc2cc(-n3cc(COc4ccc5nc(C)n(-c6ccccc6)c(=O)c5c4)nn3)ccc2c(=O)n1-c1ccccc1`, for which the MIC in experiment [2], in experiment [3], in experiment [1], in experiment [4], in experiment [5] and in experiment [6] was over 64 µg/mL in each case.

Turning to `COc1ccc(-c2ccc3nc(C)n(-c4ccccc4)c(=O)c3c2)cc1`, the MIC in experiment [2] is over 64 µg/mL; in experiment [3], over 64 µg/mL; in experiment [1], over 64 µg/mL; in experiment [4], over 64 µg/mL; in experiment [5] it was 32 µg/mL (≈ 93.5 µM); in experiment [6] it was over 64 µg/mL.

Regarding `N#Cc1ccc(/C=C/c2nc3cc(-n4cc(-c5ccccc5)nn4)ccc3c(=O)n2-c2ccccc2)cc1`, the MIC in experiment [2], in experiment [3], in experiment [1], in experiment [4], in experiment [5] and in experiment [6] was over 64 µg/mL each time.

In the case of `COc1ccc(-c2cn(-c3ccc4c(=O)n(-c5ccccc5)c(/C=C/c5ccc(C#N)cc5)nc4c3)nn2)cc1`, the MIC in experiment [2], in experiment [3], in experiment [1], in experiment [4], in experiment [5] and in experiment [6] was over 64 µg/mL each time.

In experiment [5], GENTAMICIN came in with an MIC of 0.25 µg/mL.

As for `COc1cc(-n2cc(COc3ccc4nc(C)n(-c5ccccc5)c(=O)c4c3)nn2)cc(OC)c1OC`, the MIC in experiment [2], in experiment [3], in experiment [1], in experiment [4], in experiment [5] and in experiment [6] was over 64 µg/mL each time.

In the case of `CC(C)(C)c1ccc(-n2c(/C=C/c3ccc(C#N)cc3)nc3ccccc3c2=O)cc1`, the minimum inhibitory concentration (MIC) in experiment [2], in experiment [3], in experiment [1], in experiment [4], in experiment [5] and in experiment [6] was over 64 µg/mL throughout.

Consider `COC(=O)Cn1c(/C=C/c2ccc(C#N)cc2)nc2ccccc2c1=O`, for which the MIC in experiment [2], in experiment [3], in experiment [1], in experiment [4], in experiment [5] and in experiment [6] was over 64 µg/mL each time.

As to `CO[C@H]1/C=C/O[C@@]2(C)Oc3c(C)c(O)c4c(O)c(c(/C=N/N5CCN(C)CC5)c(O)c4c3C2=O)NC(=O)/C(C)=C\C=C\[C@H](C)[C@H](O)[C@@H](C)[C@@H](O)[C@@H](C)[C@H](OC(C)=O)[C@@H]1C` [RIFAMPIN], the MIC in experiment [1] worked out at 0.03 µg/mL (≈ 0.0365 µM); in experiment [5], 0.015 µg/mL (≈ 0.0182 µM).

As to `N#Cc1ccc(/C=C/c2nc3ccccc3c(=O)n2Cc2ccc(F)cc2)cc1`, the minimum inhibitory concentration (MIC) in experiment [2], in experiment [3], in experiment [1], in experiment [4], in experiment [5] and in experiment [6] was over 64 µg/mL throughout.

Turning to `Cc1nc2ccc(OCc3cn(-c4cccc(Cl)c4)nn3)cc2c(=O)n1Cc1ccccc1`, the MIC in experiment [2], in experiment [3], in experiment [1], in experiment [4], in experiment [5] and in experiment [6] was over 64 µg/mL throughout.

`CN(C)c1ccc(O)c2c1C[C@H]1C[C@H]3[C@H](N(C)C)C(O)=C(C(N)=O)C(=O)[C@@]3(O)C(O)=C1C2=O` [MINOCYCLINE] yielded a minimum inhibitory concentration (MIC) in experiment [5] of 0.125 µg/mL (≈ 0.273 µM).

For `Cc1cc(-n2cc(CNc3ccc4c(=O)n(-c5ccccc5)c(C)nc4c3)nn2)cc(C)c1C`, the minimum inhibitory concentration (MIC) in experiment [2], in experiment [3], in experiment [1], in experiment [4], in experiment [5] and in experiment [6] was over 64 µg/mL throughout.

In the case of `N#Cc1ccc(/C=C/c2nc3ncccc3c(=O)n2-c2cccc(C#N)c2)cc1`, the MIC in experiment [2], in experiment [3], in experiment [1], in experiment [4], in experiment [5] and in experiment [6] was over 64 µg/mL each time.

With `Cc1nc2ccc(-c3ccccc3)cc2c(=O)n1-c1ccccc1`, the MIC in experiment [2], in experiment [3], in experiment [1], in experiment [4], in experiment [5] and in experiment [6] was over 64 µg/mL in each case.

For `C#CCOc1ccc2nc(/C=C/c3ccc(C#N)cc3)n(Cc3ccccc3)c(=O)c2c1`, the MIC in experiment [2], in experiment [3], in experiment [1], in experiment [4], in experiment [5] and in experiment [6] was over 64 µg/mL throughout.

In the case of `N#Cc1ccc(/C=C/c2nc3ccccc3c(=O)n2-c2cccnc2)cc1`, the MIC in experiment [2] was over 64 µg/mL; in experiment [3] it was over 64 µg/mL; in experiment [1], over 64 µg/mL; in experiment [4], over 64 µg/mL; in experiment [5], 64 µg/mL (≈ 183 µM); in experiment [6], over 64 µg/mL.

Regarding `N#Cc1ccc(/C=C/c2nc3ccccc3c(=O)n2-c2ccc(O)cc2C(=O)O)cc1`, the MIC in experiment [2], in experiment [3], in experiment [1], in experiment [4], in experiment [5] and in experiment [6] was over 64 µg/mL in each case.

The molecule `CC(C)(O/N=C(\C(=O)N[C@@H]1C(=O)N2C(C(=O)[O-])=C(C[n+]3ccccc3)CS[C@H]12)c1csc(N)n1)C(=O)O` [CEFTAZIDIME] registered an MIC in experiment [5] of 16 µg/mL (≈ 29.3 µM).

Regarding `N#Cc1ccc(/C=C/c2nc3ncccc3c(=O)n2-c2ccc(C#N)cc2)cc1`, the MIC in experiment [2] is over 64 µg/mL; in experiment [3] it was over 64 µg/mL; in experiment [1], over 64 µg/mL; in experiment [4], over 64 µg/mL; in experiment [5], 64 µg/mL (≈ 170 µM); in experiment [6], over 64 µg/mL.

As for `COc1ccc(-c2ccc3nc(/C=C/c4ccccc4)n(-c4ccccc4)c(=O)c3c2)cc1`, the MIC is over 64 µg/mL in experiment [2]; over 64 µg/mL in experiment [3]; 64 µg/mL (≈ 149 µM) in experiment [1]; over 64 µg/mL in experiment [4]; over 64 µg/mL in experiment [5]; over 64 µg/mL in experiment [6].

Take `N#Cc1ccc(/C=C/c2nc3ncccc3c(=O)n2-c2cccc(O)c2)cc1`: the MIC in experiment [2], in experiment [3], in experiment [1], in experiment [4], in experiment [5] and in experiment [6] was over 64 µg/mL throughout.

`CCCCCCCCCC(=O)N[C@@H](Cc1c[nH]c2ccccc12)C(=O)N[C@H](CC(N)=O)C(=O)N[C@@H](CC(=O)O)C(=O)N[C@@H]1C(=O)NCC(=O)N[C@@H](CCCN)C(=O)N[C@@H](CC(=O)O)C(=O)N[C@H](C)C(=O)N[C@@H](CC(=O)O)C(=O)NCC(=O)N[C@H](CO)C(=O)N[C@@H]([C@H](C)CC(=O)O)C(=O)N[C@@H](CC(=O)c2ccccc2N)C(=O)O[C@@H]1C` gave an MIC in experiment [5] of 0.5 µg/mL (≈ 0.309 µM).
